For 21 compounds, pest or weed control results are on record in US20250228239A1, “MOLECULES HAVING PESTICIDAL UTILITY, AND INTERMEDIATES, COMPOSITIONS, AND PROCESSES, RELATED THERETO” (priority 2024, published 2025).

Test [1] concerns Cabbage Looper (Trichoplusia ni, TRIPNI). As to the kind of experiment: Bioassays on Cabbage Looper (CL), 128-well diet tray assay. It is filed as in vivo. Conditions: Trichoplusia ni. A digest of the protocol:
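Test molecule was dissolved in 90:10 acetone-water, applied to artificial diet at 50 μg/cm^2 and allowed to dry. Second-instar larvae were then added, one to five per well, and trays held at 25° C for five to seven days before mortality was scored and averaged.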

Test [2] concerns Beet Armyworm (Spodoptera exigua, LAPHEG). As to the kind of experiment: Bioassays on Beet Armyworm (BAW), 128-well diet tray assay. It is filed as in vivo. Conditions: Spodoptera exigua. Summed up: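 Percent larval mortality, averaged across eight wells, scored after five to seven days at 25° C. under 14:10 light-dark. Each well held one to five second instars feeding on diet dosed at 50 μg/cm^2 with compound from 90:10 acetone-water, solvent dried off.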

[3] abbreviates: Table ABC: Biological Results, species CL, read-out: CL.
The mark [4] stands for this setting: Table ABC: Biological Results, species BAW, read-out: BAW.
The mark [5] stands for this setting: Cabbage Looper, Table ABC / ABC-DP rating, read-out: CL rating.
Where [6] appears, read: Beet Armyworm, Table ABC / ABC-DP rating, read-out: BAW rating.
Setting [7] is: Cabbage Looper, rating class, read-out: CL.
The mark [8] stands for this setting: Beet Armyworm, rating class, read-out: BAW.

Like-named read-outs stand apart in the source and are kept apart here.

Turning to `Nc1c(F)ccc(NC(=O)c2cc(NC(=O)[C@H]3[C@H](c4ccc(F)c(C(F)(F)F)c4)C3(Cl)Cl)cc(F)c2Cl)c1F` [F1285, N-(3-Amino-2,4-difluorophenyl)-2-chloro-5-((1R,3R)-2,2-dichloro-3-(4-fluoro-3-(trifluoromethyl)phenyl)cyclopropane-1-carboxamido)-3-fluorobenzamide], the pest or weed control at 50 µg/cm2 in test [1] (setting [3]) and in test [2] (setting [4]) was 50 to 100% each time.
Turning to `O=C(Nc1ccc(F)c(NC(=O)C(F)F)c1F)c1cc(NC(=O)[C@H]2[C@H](c3cc(Cl)cc(Cl)c3)C2(Cl)Cl)ccc1Cl` [F1268, 2-Chloro-5-((1R,3R)-2,2-dichloro-3-(3,5-dichlorophenyl)cyclopropane-1-carboxamido)-N-(3-(2,2-difluoroacetamido)-2,4-difluorophenyl)benzamide], the pest or weed control at 50 µg/cm2 in test [1] (setting [3]) and in test [2] (setting [4]) was 50 to 100% in each case.
For the compound `O=C(Nc1ccc(F)cc1NC(=O)C(Cl)(Cl)Cl)c1cc(NC(=O)C2C(c3ccc(Cl)c(Cl)c3)C2(Cl)Cl)ccc1Cl` (stereo not drawn) [F1126], the pest or weed control at 50 µg/cm2 in test [1] (setting [3]) and in test [2] (setting [4]) was 50 to 100% throughout.
In the case of `O=C(Nc1c(F)ccc(NC(=O)c2cc(NC(=O)[C@H]3[C@H](c4ccc(F)c(C(F)(F)F)c4)C3(Cl)Cl)ccc2Cl)c1F)c1ccc(F)cc1` [F1204, 2-chloro-5-((1R,3R)-2,2-dichloro-3-(4-fluoro-3-(trifluoromethyl)phenyl)cyclopropane-1-carboxamido)-N-(2,4-difluoro-3-(4-fluorobenzamido)phenyl)benzamide], the pest or weed control at 50 µg/cm2 in test [1] (setting [3]) and in test [2] (setting [4]) was 50 to 100% in each case.
For the compound `CC(C)CC(=O)Nc1c(F)ccc(NC(=O)c2cc(NC(=O)[C@H]3[C@H](c4ccc(F)c(C(F)(F)F)c4)C3(Cl)Cl)ccc2Cl)c1F` [F1845, 2-Chloro-5-((1R,3R)-2,2-dichloro-3-(4-fluoro-3-(trifluoromethyl)phenyl)cyclopropane-1-carboxamido)-N-(2,4-difluoro-3-(3-methylbutanamido)phenyl)benzamide], the pest or weed control at 50 µg/cm2 in test [1] (setting [5]) and in test [2] (setting [6]) was 50 to 100% each time.
On to `COc1c(Cl)cc(NC(=O)[C@H]2[C@H](c3ccc(F)c(Cl)c3)C2(Cl)Cl)cc1C(=O)NCC(F)(F)C(F)(F)F` (relative stereo) [F2062, trans-3-Chloro-5-(2,2-dichloro-3-(3-chloro-4-fluorophenyl)cyclopropane-1-carboxamido)-2-methoxy-N-(2,2,3,3,3-pentafluoropropyl)benzamide], for which the pest or weed control at 50 µg/cm2 in test [1] (setting [5]) and in test [2] (setting [6]) was 50 to 100% each time.
For the compound `CCNC(=O)c1c(Cl)ccc(NC(=O)[C@H]2[C@H](c3ccc(F)c(Cl)c3)C2(Cl)Cl)c1F` [F2071, 6-Chloro-3-((1R,3R)-2,2-dichloro-3-(3-chloro-4-fluorophenyl)cyclopropane-1-carboxamido)-N-ethyl-2-fluorobenzamide], the pest or weed control at 50 µg/cm2 in test [1] (setting [5]) and in test [2] (setting [6]) was 50 to 100% throughout.
Regarding `CCC(=O)Nc1c(F)ccc(NC(=O)c2cc(NC(=O)[C@H]3[C@H](c4ccc(Cl)c(Cl)c4)C3(Cl)Cl)ccc2Cl)c1F` [F1472, 2-Chloro-5-((1R,3R)-2,2-dichloro-3-(3,4-dichlorophenyl)cyclopropane-1-carboxamido)-N-(2,4-difluoro-3-propionamidophenyl)benzamide], the pest or weed control at 50 µg/cm2 in test [1] (setting [7]) and in test [2] (setting [8]) was 50 to 100% each time.
Turning to `CC(=O)Nc1cc(NC(=O)c2cc(NC(=O)[C@H]3[C@H](c4ccc(F)c(C(F)(F)F)c4)C3(Cl)Cl)cc(F)c2F)c(F)cc1F` [F1587, N-(5-Acetamido-2,4-difluorophenyl)-5-((1R,3R)-2,2-dichloro-3-(4-fluoro-3-(trifluoromethyl)phenyl)cyclopropane-1-carboxamido)-2,3-difluorobenzamide], the pest or weed control at 50 µg/cm2 in test [1] (setting [7]) and in test [2] (setting [8]) was 50 to 100% in each case.
In the case of `CC(=O)Nc1cc(NC(=O)c2cc(NC(=O)[C@H]3[C@H](c4ccc(Cl)c(Cl)c4)C3(Cl)Cl)cc(F)c2F)c(F)cc1F` [F1585, N-(5-Acetamido-2,4-difluorophenyl)-5-((1R,3R)-2,2-dichloro-3-(3,4-dichlorophenyl)cyclopropane-1-carboxamido)-2,3-difluorobenzamide], the pest or weed control at 50 µg/cm2 in test [1] (setting [7]) and in test [2] (setting [8]) was 50 to 100% each time.
In the case of `Cc1cc(F)c(NC(=O)c2cc(NC(=O)[C@H]3[C@H](c4ccc(F)c(Cl)c4)C3(Cl)Cl)ccc2Cl)cc1[N+](=O)[O-]` [F1082, 2-Chloro-5-((1R,3R)-2,2-dichloro-3-(3-chloro-4-fluorophenyl)cyclopropane-1-carboxamido)-N-(2-fluoro-4-methyl-5-nitrophenyl)benzamide], the pest or weed control at 50 µg/cm2 in test [1] (setting [3]) and in test [2] (setting [4]) was 50 to 100% throughout.
`O=C(Nc1cc(NC(=O)C(F)F)c(F)cc1F)c1cc(NC(=O)[C@H]2[C@H](c3ccc(Cl)c(Cl)c3)C2(Cl)Cl)cc(F)c1F` [F1583, 5-((1R,3R)-2,2-Dichloro-3-(3,4-dichlorophenyl)cyclopropane-1-carboxamido)-N-(5-(2,2-difluoroacetamido)-2,4-difluorophenyl)-2,3-difluorobenzamide]: the pest or weed control at 50 µg/cm2 in test [1] (setting [7]) and in test [2] (setting [8]) was 50 to 100% each time.
In the case of `O=C(NNc1ccc(Cl)c(Cl)c1)c1cc(NC(=O)[C@H]2[C@H](c3cc(Cl)cc(Cl)c3)C2(Cl)Cl)ccc1Cl` (relative stereo) [F2560, trans-2,2-Dichloro-N-(4-chloro-3-(2-(3,4-dichlorophenyl)hydrazine-1-carbonyl)phenyl)-3-(3,5-dichlorophenyl)cyclopropane-1-carboxamide], the pest or weed control at 50 µg/cm2 in test [1] (setting [5]) and in test [2] (setting [6]) was 50 to 100% throughout.
Regarding `Cc1cc(NC(=O)[C@H]2[C@H](c3ccc(F)c(C(F)(F)F)c3)C2(Cl)Cl)cc(C(=O)Nc2ccc(F)c(NC(=O)C(F)(F)F)c2F)c1Cl` [F1495, 2-Chloro-5-((1R,3R)-2,2-dichloro-3-(4-fluoro-3-(trifluoromethyl)phenyl)cyclopropane-1-carboxamido)-N-(2,4-difluoro-3-(2,2,2-trifluoroacetamido)phenyl)-3-methylbenzamide], the pest or weed control at 50 µg/cm2 in test [1] (setting [7]) and in test [2] (setting [8]) was 50 to 100% in each case.
As for `O=C(Nc1ccc(F)c(NS(=O)(=O)CC2CC2(Cl)Cl)c1F)c1cc(NC(=O)[C@H]2[C@H](c3ccc(F)c(C(F)(F)F)c3)C2(Cl)Cl)ccc1Cl` (stereo partly drawn) [F1361, 2-Chloro-5-((1R,3R)-2,2-dichloro-3-(4-fluoro-3-(trifluoromethyl)phenyl)cyclopropane-1-carboxamido)-N-(3-(((2,2-dichlorocyclopropyl)methyl)sulfonamido)-2,4-difluorophenyl)benzamide], the pest or weed control at 50 µg/cm2 in test [1] (setting [3]) and in test [2] (setting [4]) was 50 to 100% throughout.
With `CC(=O)Nc1cc(NC(=O)c2cc(NC(=O)[C@H]3[C@H](c4ccc(F)c(C(F)(F)F)c4)C3(Cl)Cl)ccc2Cl)c(F)cc1F` [F1539, N-(5-Acetamido-2,4-difluorophenyl)-2-chloro-5-((1R,3R)-2,2-dichloro-3-(4-fluoro-3-(trifluoromethyl)phenyl)cyclopropane-1-carboxamido)benzamide], the pest or weed control at 50 µg/cm2 in test [1] (setting [7]) and in test [2] (setting [8]) was 50 to 100% each time.
Take `CCNc1c(F)ccc(NC(=O)c2cc(NC(=O)[C@H]3[C@H](c4ccc(F)c(C(F)(F)F)c4)C3(Cl)Cl)ccc2Cl)c1F` [F1762, 2-Chloro-5-((1R,3R)-2,2-dichloro-3-(4-fluoro-3-(trifluoromethyl)phenyl)cyclopropane-1-carboxamido)-N-(3-(ethylamino)-2,4-difluorophenyl)benzamide]: the pest or weed control at 50 µg/cm2 in test [1] (setting [7]) and in test [2] (setting [8]) was 50 to 100% throughout.
For `O=C(Nc1c(F)cc(F)cc1F)c1cc(NC(=O)[C@@H]2[C@@H](c3cc(Cl)cc(Cl)c3)C2(Cl)Cl)ccc1Cl` (single isomer, unassigned) [F1378], the pest or weed control at 50 µg/cm2 in test [1] (setting [3]) was 50 to 100%; in test [2] (setting [4]), 0 to 50%.
Turning to `CCC(=O)Nc1c(F)ccc(NC(=O)c2cc(NC(=O)[C@H]3[C@H](c4ccc(F)c(Br)c4)C3(Cl)Cl)ccc2Cl)c1F` [F1717, 5-((1R,3R)-3-(3-Bromo-4-fluorophenyl)-2,2-dichlorocyclopropane-1-carboxamido)-2-chloro-N-(2,4-difluoro-3-propionamidophenyl)benzamide], the pest or weed control at 50 µg/cm2 in test [1] (setting [7]) and in test [2] (setting [8]) was 50 to 100% throughout.
Turning to `CC(C(=O)Nc1c(F)ccc(NC(=O)c2cc(NC(=O)[C@H]3[C@H](c4ccc(F)c(C(F)(F)F)c4)C3(Cl)Cl)ccc2Cl)c1F)C(F)(F)F` (stereo partly drawn) [F1832, 2-Chloro-5-((1R,3R)-2,2-dichloro-3-(4-fluoro-3-(trifluoromethyl)phenyl)cyclopropane-1-carboxamido)-N-(2,4-difluoro-3-(3,3,3-trifluoro-2-methylpropanamido)phenyl)benzamide], the pest or weed control at 50 µg/cm2 in test [1] (setting [5]) and in test [2] (setting [6]) was 50 to 100% in each case.
`O=C(NNC(=S)NCC(F)(F)F)c1cc(NC(=O)[C@H]2[C@H](c3cc(Cl)cc(Cl)c3)C2(Cl)Cl)ccc1Cl` (relative stereo) [F2539, trans-2,2-dichloro-N-(4-chloro-3-(2-((2,2,2-trifluoroethyl)carbamothioyl)hydrazine-1-carbonyl)phenyl)-3-(3,5-dichlorophenyl)cyclopropane-1-carboxamide]: the pest or weed control at 50 µg/cm2 in test [1] (setting [5]) and in test [2] (setting [6]) was 50 to 100% each time.
